Measurements reported in EP0557936A1, “Amidic derivatives of (R)-glycerophosphoryl-(S)-serine or of its diacyl derivative, process for their preparation and relative pharmaceutical compositions for the improvement of the learning processes” (MAGIS FARMACEUTICI S.p.A., priority 1992, dated 1993).

Experiments:
[1] = system: scopolamine induced amnesy; test: passive avoidance test, scopolamine induced amnesia (intraperitoneal administration); format: in vivo, rat; settings: scopolamine 1 mg/kg; for Avoid. time (sec.) After 24 h: re-test after 24 h, end-point 300 second
Protocol: (§1) The antiamnesic activity was tested by means of the classical passive avoidance test, with respect to the amnesy induced in the rat, by administration of scopolamine, or by means of electroconvulsive shock (ECS).For both the tests a shuttle-box was used of the Ugo Basile Company (Comerio, Varese), consisting of two compartments, one of which compartments was clear and the other one dark and fitted with an electrifiable floor.
(§2) In order to induce a passive avoidance response, the animal was placed onto a runner of the clear compartment, enlightened by a 60 watt lamp, for a 1 minute acclimatisation, whereafter a bulkhead was opened putting the runner in communication with the dark compartment, which the animal istinctively entered after a latency of a few seconds. The bulkhead was immediately shut and the animal got a 0.21 mA current for 2 second through the electrifiable floor. The animal was then removed and newly subjected to the test 24 h later, in order to verify the retention level of the acquired response of passive avoidance, measuring the latency required by the entry into the electrifiable compartment, with an end-point of 300 second.
(§3) All the tests were carried out under conditions of stratified randomization, using in each test session the same number of animals for the different experimental groups tested in parallel, and comprising, besides the groups treated with the product under test (test substances and reference substances having known activity), two separate groups of controls and precisely: blank controls (animals treated with placebo) and deconditioned controls (animals treated with placebo and subjected to amnesic treatment by means of scopolamine or of ECS).
(§4) The results obtained with the different dosages of the products subjected to screening and with the corresponding reference standards having a known activity, namely N(S)-3-(formyl-amino)-epsilon-caprolactam, N(4-phenylbutanoyl-hydroxy)prolyl-pyrrolidine and glycerophosphoryl-serine, were expressed as a percentage of antagonism of the amnesy (AA), defined according to the following formula: [formula] wherein the index of comparison IC, concerning treated animals (t) and blank controls (b), is defined by the formula: [formula] wherein: Nm = number of animals belonging to group m (blanks or treated animals); Nn = number of animals belonging to group n (deconditioned animals); Amn = binary function which can assume only the values +1, zero or - 1, depending on the fact that the latency time (seconds) of an animal of the m group (xm) be respectively higher than, equal to or lower than the latency time (seconds) of an animal of the n group (xn).
(§5) The summation Σ Amn i extended to all the pairs obtained combining each xm term with each xn term.
(§6) Normally the comparison index (IC) between blank controls and deconditioned controls is between 60% and 80% and the test was discarded when such index resulted to be lower than 40%.
The utilized rats were male C.r.l.: CD (50) BR (Charles River Italia), showing a weight of 150-170 g, after an acclimatisation time of a week, under standard conditions.
The animals got the products to be tested by intraperitoneal way and scopolamine bromhydrate (1 mg/kg) by subcutaneous way, respectively 45 and 30 minutes before being subjected to the previously described avoidance test.
As to the standard substances [GFS, N(S)-3-(formylamino)-epsilon-caprolactam and N(4-phenylbutanoylhydroxy)prolyl-pyrrolidine], the used dosage was 4x10⁻² mmol/kg, whereas for the products to be tested the used dosage was between 1x10⁻² and 12x10⁻² mmol/kg, with an intermediate dosage equimolar with respect to the one of the standards.

[2] = system: ECS engendered amnesy; test: passive avoidance test, electroconvulsive shock (ECS) induced amnesia; format: in vivo, rat; settings: groups of 10
Protocol: as §1, §2, §3, §4, §5, §6
The animals got the products to be tested 30 minute before undergoing the previously described avoidance test.
In this series of experimental works the deconditioning treatment consists of an electroshock (square wave of 45 m, amplitude 0.6 ms, time 2 s and frequency 40 Hz), delivered by means of auricular electrodes, connected to an electrostimulator ECT/UNIT of the Ugo Basile Company (Comerio, Varese).
The used dosages were 8x10⁻² mmol/kg for the standard substances, therefore higher than the ones used in the preceeding test and this depends on a lower activity of the standard substances, previously ascertained in this test, in our experimental conditions.
The dosages of the products to be tested were correlatively comprised between 2x10⁻² and 24x10⁻² mmol/kg, with an intermediate dosage equimolar (8x10⁻² mmol/kg) with respect to the ones of the standard substances.

[3] = dose 8 x 10^-2 mmoli/kg i.p. 30' before the acquisition trial
[4] = dose 4 x 10^-2 mmoli/kg i.p. 30' before the acquisition trial
[5] = dose 12 x 10^-2 mmoli/kg i.p. 30' before the acquisition trial
[6] = dose 16 x 10^-2 mmoli/kg i.p. 30' before the acquisition trial

**Q.** For `N[C@@H](COP(=O)(O)OC[C@H](O)CO)C(=O)O` [GFS, glycerophosphoryl-serine, reference compound], which “No.of amnesic rats/No. of rats tested” value ([1]; dose 4.10^-2 mmoli/kg i.p.) is on record?
**A.** The value was 4/10.

**Q.** What about the Percent amnesia ([1]; dose 4.10^-2 mmoli/kg i.p.) of the same molecule?
**A.** Its Percent amnesia is 40%.

**Q.** What about the “Avoid. time (sec.) After 24 h” value ([1]; dose 4.10^-2 mmoli/kg i.p.) of the same molecule?
**A.** The value was 126,5 sec.

**Q.** And the “Time taken to enter chamber (min)” value [2, 3]?
**A.** Its value is 0,236 min.

**Q.** For `COC(=O)CN1CCCC[C@H](NC(=O)[C@@H](N)COP(=O)(O)OC[C@@H](COC(C)=O)OC(C)=O)C1=O` [MGS 1], which “No.of amnesic rats/No. of rats tested” value ([1]; dose 4.10^-2 mmoli/kg i.p.) is on record?
**A.** Its value is 2/10.

**Q.** And the Percent amnesia ([1]; dose 4.10^-2 mmoli/kg i.p.)?
**A.** Its Percent amnesia is 20%.

**Q.** What about the “Avoid. time (sec.) After 24 h” value ([1]; dose 4.10^-2 mmoli/kg i.p.) of the same molecule?
**A.** Its value is 243,5 sec.

**Q.** What about the “No.of amnesic rats/No. of rats tested” value ([1]; dose 8.10^-2 mmoli/kg i.p.) of the same molecule?
**A.** Its value is 1/10.

**Q.** What about the Percent amnesia ([1]; dose 8.10^-2 mmoli/kg i.p.) of the same molecule?
**A.** Its Percent amnesia is 10%.

**Q.** What about the “Avoid. time (sec.) After 24 h” value ([1]; dose 8.10^-2 mmoli/kg i.p.) of the same molecule?
**A.** Its value is 266,6 sec.

**Q.** And the “No.of amnesic rats/No. of rats tested” value ([1]; dose 12.10^-2 mmoli/kg i.p.)?
**A.** The value was 0/10.

**Q.** And the Percent amnesia ([1]; dose 12.10^-2 mmoli/kg i.p.)?
**A.** The Percent amnesia was 0%.

**Q.** What about the “Avoid. time (sec.) After 24 h” value ([1]; dose 12.10^-2 mmoli/kg i.p.) of the same molecule?
**A.** The value was 300 s.

**Q.** What about the “Time taken to enter chamber (min)” value [2, 4] of the same molecule?
**A.** Its value is 0,664 min.

**Q.** What about the “Time taken to enter chamber (min)” value [2, 3] of the same molecule?
**A.** The value was 1,378 min.

**Q.** What about the “Time taken to enter chamber (min)” value [2, 5] of the same molecule?
**A.** The value was 1,916 min.

**Q.** And the “Time taken to enter chamber (min)” value [2, 6]?
**A.** Its value is 1,615 min.

**Q.** With `COC(=O)CN1CCCC[C@H](NC(=O)[C@@H](N)COP(=O)(O)OC[C@H](O)CO)C1=O` [MGS 2] as the molecule, how does the “No.of amnesic rats/No. of rats tested” value ([1]; dose 4.10^-2 mmoli/kg i.p.) read?
**A.** The value was 2/10.

**Q.** What about the Percent amnesia ([1]; dose 4.10^-2 mmoli/kg i.p.) of the same molecule?
**A.** Its Percent amnesia is 20%.

**Q.** What about the “Avoid. time (sec.) After 24 h” value ([1]; dose 4.10^-2 mmoli/kg i.p.) of the same molecule?
**A.** Its value is 270 s.

**Q.** What about the “No.of amnesic rats/No. of rats tested” value ([1]; dose 8.10^-2 mmoli/kg i.p.) of the same molecule?
**A.** Its value is 0/10.

**Q.** What about the Percent amnesia ([1]; dose 8.10^-2 mmoli/kg i.p.) of the same molecule?
**A.** Its Percent amnesia is 0%.

**Q.** What about the “Avoid. time (sec.) After 24 h” value ([1]; dose 8.10^-2 mmoli/kg i.p.) of the same molecule?
**A.** Its value is 300 s.

**Q.** What about the “No.of amnesic rats/No. of rats tested” value ([1]; dose 12.10^-2 mmoli/kg i.p.) of the same molecule?
**A.** Its value is 0/10.

**Q.** What about the Percent amnesia ([1]; dose 12.10^-2 mmoli/kg i.p.) of the same molecule?
**A.** Its Percent amnesia is 0%.

**Q.** And the “Avoid. time (sec.) After 24 h” value ([1]; dose 12.10^-2 mmoli/kg i.p.)?
**A.** Its value is 300 s.

**Q.** What about the “Time taken to enter chamber (min)” value [2, 4] of the same molecule?
**A.** Its value is 0,557 min.

**Q.** What about the “Time taken to enter chamber (min)” value [2, 3] of the same molecule?
**A.** Its value is 1,418 min.

**Q.** What about the “Time taken to enter chamber (min)” value [2, 5] of the same molecule?
**A.** Its value is 2,072 min.

**Q.** What about the “Time taken to enter chamber (min)” value [2, 6] of the same molecule?
**A.** Its value is 1,777 min.

**Q.** How did the “Time taken to enter chamber (min)” value [2, 3] turn out when `N[C@@H](COP(=O)(O)OC[C@H](O)CO)C(=O)N[C@H]1CCCCNC1=O` [MGS 4] was run?
**A.** Its value is 0,466 min.

**Q.** What about the “Time taken to enter chamber (min)” value [2, 5] of the same molecule?
**A.** Its value is 1,316 min.

**Q.** What about the “Time taken to enter chamber (min)” value ([2]; dose 24 x 10^-2 mmoli/kg i.p. 30' before the acquisition trial) of the same molecule?
**A.** The value was 1,883 min.

**Q.** How did the “No.of amnesic rats/No. of rats tested” value ([1]; dose 4.10^-2 mmoli/kg i.p.) turn out when `O=CN[C@H]1CCCCNC1=O` [N-Formylamino ε -caprolactame, N(S)-3-(formyl-amino)-epsilon-caprolactam, reference compound] was run?
**A.** The value was 4/10.

**Q.** And the Percent amnesia ([1]; dose 4.10^-2 mmoli/kg i.p.)?
**A.** Its Percent amnesia is 40%.

**Q.** And the “Avoid. time (sec.) After 24 h” value ([1]; dose 4.10^-2 mmoli/kg i.p.)?
**A.** Its value is 72,5 sec.

**Q.** And the “Time taken to enter chamber (min)” value [2, 3]?
**A.** Its value is 0,131 min.

**Q.** Which results are given for “N(4-phenylbutanoyl-hydroxy)prolyl-pyrrolidine [Phenyl-butirryl prolyl-pirrolidine, reference compound]”?
**A.** No.of amnesic rats/No. of rats tested ([1]; dose 4.10^-2 mmoli/kg i.p.): 4/10; Percent amnesia ([1]; dose 4.10^-2 mmoli/kg i.p.): 40%; Avoid. time (sec.) After 24 h ([1]; dose 4.10^-2 mmoli/kg i.p.): 101,7 sec.; Time taken to enter chamber (min) [2, 3]: 0,213 min
